These results are taken from patent publication US20060069084A1, “Methods of inhibiting kinases” (priority 2001, published 2006).

Each structure is given as a SMILES string.

Common to all, as to assay type: biochemical
Common to all, as to conditions: inhibit 50% of activity at 50 μM

One experiment concerns the target T1, JAK1 (Homo sapiens, UniProt P23458).
T1 construct: The kinase domain of humanJAK1 was amplified from U937mRNA; His tag (from pFastBac HTb vector; nickel chelate purification) (N); made in house; host or cells: baculovirus; virus made in Sf9, large-scale expression in High Five insect cells
The experiment in a line: JAK1 kinase domain capture-based ELISA kinase assay. The procedure:
(§1) For screening purposes, compounds were diluted in 96 well plates at a concentration of 50 μM or 20 μM. Plates were warmed at 37° C. for 30 minutes before assay.
The kinase domain of humanJAK1 was amplified from U937mRNA using the polymerase chain reaction with the following primers: […]
JAK1 PCR products were cloned into the pFastBac HTb expression vector (Gibco) via the Xho I and Kpn I sites. The JAK1 plasmid was then transformed into competent DH10Bac cells (Gibco), and the recombinant baculovirus produced prepared for transfection into Sf9 insect cells.
(§2) Baculovirus preparations from each of the JAK family members were infected into five litres of High Five cells (Invitrogen) grown in High Five serum free medium (Invitrogen) to a cell density of approximately 1-2×10^6 cells/ml. Cells are infected with virus at a MOI of 0.8-3.0. Cells were harvested and lysed. JAK kinase domains were purified by affinity chromatography on a Probond (Invitrogen) nickel chelate affinity column.
(§3) The biotinylated substrate biotin-EGPWLEEEEEAYGWMDF-NH2 (SEQ ID NO:9) (final concentration 5 μM) was used as substrate, and tyrosine phosphorylation was quantitated following transfer to an avidin coated ELISA plate using peroxidase-linked anti-phospho-tyrosine antibody PY20.
(§4) Inhibitors were added to the assays fifteen minutes prior to the addition of ATP. Inhibitors were added in aqueous DMSO, with DMSO concentrations never exceeding 1%.
A general note: An ELISA detects its analyte on a solid surface through an enzyme-linked reagent.

The target of another experiment is T2, JAK2 (Homo sapiens, UniProt O60674).
T2 construct: The kinase domain of humanJAK2 was amplified from U937mRNA; His tag (from pFastBac HTc vector; nickel chelate purification) (N); made in house; host or cells: baculovirus; virus made in Sf9, large-scale expression in High Five insect cells
As to the kind of experiment: JAK2 kinase domain capture-based ELISA kinase assay. The method, then: as §1
The kinase domain of humanJAK2 was amplified from U937mRNA using the polymerase chain reaction with the following primers: […]
JAK2 PCR products were cloned into the pFastBac HTc expression vector (Gibco) via the Sal I and Not I sites. The JAK2 plasmid was then transformed into competent DH10Bac cells (Gibco), and the recombinant baculovirus produced prepared for transfection into Sf9 insect cells.
as §2, §3, §4

The target of another experiment is T3, JAK3 (Homo sapiens, UniProt P52333).
T3 construct: The kinase domain of humanJAK3 was amplified from U937mRNA; His tag (from pFastBac HTb vector; nickel chelate purification) (N); made in house; host or cells: baculovirus; virus made in Sf9, large-scale expression in High Five insect cells
The experiment in a line: JAK3 kinase domain capture-based ELISA kinase assay. The procedure:
as §1
The kinase domain of humanJAK3 was amplified from U937mRNA using the polymerase chain reaction with the following primers: […]
JAK3 PCR products were cloned into the pFastBac HTb expression vector (Gibco) via the Xho I and Kpn I sites. The JAK3 plasmid was then transformed into competent DH10Bac cells (Gibco), and the recombinant baculovirus produced prepared for transfection into Sf9 insect cells.
as §2, §3, §4

A further experiment has as its target T4, TYK2 (Homo sapiens, UniProt P29597).
T4 construct: The kinase domain of humanTYK2 was amplified from A549 mRNA; His tag (from pBlueBacHis2A vector; nickel chelate purification) (N); made in house; host or cells: baculovirus; virus made in Sf9, large-scale expression in High Five insect cells
T4 sequence (P29597 897-1176 limits assumed): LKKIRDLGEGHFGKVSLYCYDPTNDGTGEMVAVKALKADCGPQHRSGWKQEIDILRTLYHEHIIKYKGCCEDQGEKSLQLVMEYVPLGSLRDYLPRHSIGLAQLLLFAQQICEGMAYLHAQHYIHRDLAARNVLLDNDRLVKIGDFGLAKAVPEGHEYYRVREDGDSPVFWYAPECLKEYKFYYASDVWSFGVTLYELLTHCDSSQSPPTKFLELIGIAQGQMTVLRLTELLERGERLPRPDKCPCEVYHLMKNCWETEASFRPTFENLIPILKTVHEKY
As to the kind of experiment: TYK2 kinase domain capture-based ELISA kinase assay. The method, then:
as §1
The kinase domain of humanTYK2 was amplified from A549 mRNA using the polymerase chain reaction with the following primers: […]
TYK2 PCR products were cloned into pBlueBacHis2A (Invitrogen) via the EcoRI site. The recombinant TYK2 baculovirus produced was prepared for transfected into Sf9 insect cells.
as §2, §3, §4

A word on the IC50: it is the concentration that inhibits the measured activity by half. Lower therefore signals greater potency.

T1 sequence (P23458 875-1153 limits assumed): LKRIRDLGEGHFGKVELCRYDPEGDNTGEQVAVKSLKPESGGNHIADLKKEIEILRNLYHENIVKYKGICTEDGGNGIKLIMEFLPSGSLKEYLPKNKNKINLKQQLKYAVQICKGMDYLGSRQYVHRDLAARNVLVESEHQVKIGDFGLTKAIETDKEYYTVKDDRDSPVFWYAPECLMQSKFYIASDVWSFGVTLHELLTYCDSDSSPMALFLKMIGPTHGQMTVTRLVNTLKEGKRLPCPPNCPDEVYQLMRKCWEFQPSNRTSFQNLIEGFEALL
T3 sequence (P52333 822-1111 limits assumed): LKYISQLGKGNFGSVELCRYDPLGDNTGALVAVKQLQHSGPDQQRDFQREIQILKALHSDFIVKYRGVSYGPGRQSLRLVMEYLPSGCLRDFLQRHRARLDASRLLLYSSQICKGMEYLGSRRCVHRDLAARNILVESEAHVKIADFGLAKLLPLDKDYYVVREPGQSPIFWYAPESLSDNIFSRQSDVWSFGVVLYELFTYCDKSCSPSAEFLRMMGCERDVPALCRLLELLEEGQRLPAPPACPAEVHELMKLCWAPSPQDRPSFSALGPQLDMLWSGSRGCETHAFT
T2 sequence (O60674 849-1124 limits assumed): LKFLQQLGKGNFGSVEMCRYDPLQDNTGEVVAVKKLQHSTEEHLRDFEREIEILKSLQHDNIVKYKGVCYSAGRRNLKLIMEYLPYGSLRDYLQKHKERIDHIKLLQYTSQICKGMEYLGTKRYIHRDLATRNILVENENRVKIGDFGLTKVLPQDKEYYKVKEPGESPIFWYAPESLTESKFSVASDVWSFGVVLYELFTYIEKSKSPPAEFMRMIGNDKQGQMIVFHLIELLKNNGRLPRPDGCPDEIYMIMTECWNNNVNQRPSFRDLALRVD

With `Cc1ccc(S(=O)(=O)Nc2ccc(Nc3nc(-c4cccc(C(=O)NCCN(C)C)c4)cn4ccnc34)cc2)cc1`, the IC50 on JAK1 (Table 6) is below 50 µM; on JAK2 (Table 6) it was below 50 µM; on JAK3 (Table 6) it was above 50 µM; against TYK2 (Table 6), above 50 µM.
With `COc1cncc(-c2cncc(NCc3ccco3)n2)c1` [CYT20406], the IC50 at JAK1 (Table 3), on JAK2 (Table 3), on JAK3 (Table 3) and against TYK2 (Table 3) was below 50 µM throughout.
Regarding `OCc1ccccc1-c1cn2ccnc2c(Nc2ccc(N3CCOCC3)cc2)n1` [drawing 142], the IC50 on JAK1 (Table 6) was below 50 µM; on JAK2 (Table 6), below 50 µM; against JAK3 (Table 6), above 50 µM; against TYK2 (Table 6), above 50 µM.
Take `CC(=O)Nc1cccc(-c2cncc(N[C@H](C)c3ccccc3)n2)c1` [CYT32102]: the IC50 against JAK1 (Table 3), against JAK2 (Table 3), against JAK3 (Table 3) and at TYK2 (Table 3) was below 50 µM throughout.
Consider `c1coc(-c2cn3ccnc3c(Nc3ccc4[nH]ccc4c3)n2)c1`, for which the IC50 was below 50 µM against JAK1 (Table 6), below 50 µM on JAK2 (Table 6), above 50 µM against JAK3 (Table 6) and below 50 µM against TYK2 (Table 6).
As for `O=C(O)CCc1ccc(-c2cn3ccnc3c(NCCc3ccncc3)n2)cc1`, the IC50 is above 50 µM at JAK1 (Table 6), above 50 µM on JAK2 (Table 6), below 50 µM against JAK3 (Table 6) and above 50 µM against TYK2 (Table 6).
`FC(F)(F)c1cc(-c2cn3ccnc3c(NCC3CCOCC3)n2)cc(C(F)(F)F)c1`: the IC50 against JAK1 (Table 6) was above 50 µM; on JAK2 (Table 6), below 50 µM; against JAK3 (Table 6), above 50 µM; against TYK2 (Table 6), above 50 µM.
For the compound `CCN(CCO)c1ccc(Nc2nc(Br)cn3ccnc23)cc1` [drawing 83], the IC50 on JAK1 (Table 5), against JAK2 (Table 5), against JAK3 (Table 5) and at TYK2 (Table 5) was below 50 µM throughout.
For the compound `COc1cc(-c2cncc(NCCO)n2)cc(OC)c1OC` [CYT28608], the IC50 against JAK1 (Table 3), at JAK2 (Table 3), against JAK3 (Table 3) and at TYK2 (Table 3) was below 50 µM throughout.
With `CN(C)C(=O)COc1cccc(Nc2nc(-c3cccc(N)c3)cn3ccnc23)c1`, the IC50 against JAK1 (Table 6), against JAK2 (Table 6), against JAK3 (Table 6) and on TYK2 (Table 6) was below 50 µM in each case.
Take `CCN(CCO)c1ccc(Nc2nc(-c3c(OC)cccc3OC)cn3ccnc23)cc1`: the IC50 was below 50 µM at JAK1 (Table 6), below 50 µM on JAK2 (Table 6), above 50 µM against JAK3 (Table 6) and above 50 µM at TYK2 (Table 6).
For the compound `c1cc(-c2cn3ccnc3c(Nc3ccc(N4CCOCC4)cc3)n2)ccn1` [drawing 120], the IC50 against JAK1 (Table 6) is below 50 µM; against JAK2 (Table 6) it was below 50 µM; at JAK3 (Table 6) it was above 50 µM; on TYK2 (Table 6), below 50 µM.
As for `CC(=O)Nc1cccc(-c2cn3ccnc3c(Nc3ccccc3)n2)c1`, the IC50 on JAK1 (Table 6), against JAK2 (Table 6), at JAK3 (Table 6) and at TYK2 (Table 6) was below 50 µM in each case.
Consider `CCN(CCO)c1ccc(Nc2nc(-c3cccc4ccccc34)cn3ccnc23)cc1` [drawing 68], for which the IC50 at JAK1 (Table 5), against JAK2 (Table 5), against JAK3 (Table 5) and against TYK2 (Table 5) was below 50 µM each time.
In the case of `COc1cc(-c2cn3ccnc3c(NCc3ccccn3)n2)cc(OC)c1OC`, the IC50 against JAK1 (Table 5), against JAK2 (Table 5), on JAK3 (Table 5) and on TYK2 (Table 5) was below 50 µM each time.
`CN(C)CCNC(=O)c1cccc(-c2cncc(N3CCN(c4ccccc4C#N)CC3)n2)c1` [CYT34503]: the IC50 on JAK1 (Table 3), at JAK2 (Table 3), against JAK3 (Table 3) and at TYK2 (Table 3) was below 50 µM in each case.
Consider `O=C(O)CCc1ccc(-c2cn3ccnc3c(NCc3ccco3)n2)cc1`, for which the IC50 against JAK1 (Table 6) was above 50 µM; at JAK2 (Table 6) it was above 50 µM; on JAK3 (Table 6) it was below 50 µM; against TYK2 (Table 6), below 50 µM.
For the compound `CC(=O)Nc1ccc(Nc2nc(-c3ccc(O)cc3)cn3ccnc23)cc1`, the IC50 against JAK1 (Table 5), against JAK2 (Table 5), against JAK3 (Table 5) and on TYK2 (Table 5) was below 50 µM in each case.
With `CC(C)[C@H](CO)Nc1nc(-c2ccc(C(=O)O)cc2)cn2ccnc12`, the IC50 on JAK1 (Table 6) was above 50 µM; against JAK2 (Table 6) it was below 50 µM; against JAK3 (Table 6), below 50 µM; at TYK2 (Table 6), above 50 µM.
Regarding `COc1ccccc1-c1cn2ccnc2c(Nc2ccc(CCO)cc2)n1`, the IC50 on JAK1 (Table 6) was below 50 µM; on JAK2 (Table 6), below 50 µM; against JAK3 (Table 6) it was above 50 µM; on TYK2 (Table 6), below 50 µM.
In the case of `Cc1ccc(S(=O)(=O)Nc2ccc(Nc3nc(-c4ccc(CCC(=O)O)cc4)cn4ccnc34)cc2)cc1`, the IC50 at JAK1 (Table 6) was below 50 µM; at JAK2 (Table 6), below 50 µM; on JAK3 (Table 6), above 50 µM; against TYK2 (Table 6) it was below 50 µM.
Regarding `COc1cccc(-c2cccc(N3CCN(C)CC3)n2)c1` [CYT13809], the IC50 against JAK1 (Table 3), at JAK2 (Table 3), at JAK3 (Table 3) and on TYK2 (Table 3) was below 50 µM each time.
In the case of `CC(=O)Nc1cccc(-c2cncc(NCc3cccc(Cl)c3)n2)c1` [CYT20310], the IC50 against JAK1 (Table 3), against JAK2 (Table 3), on JAK3 (Table 3) and against TYK2 (Table 3) was below 50 µM each time.
`c1cncc(-c2cn3ccnc3c(NCCc3ccncc3)n2)c1`: the IC50 on JAK1 (Table 6) is above 50 µM; on JAK2 (Table 6), above 50 µM; on JAK3 (Table 6), below 50 µM; at TYK2 (Table 6), above 50 µM.
With `CCCC/C=C/c1cn2ccnc2c(NCCc2cccnc2)n1`, the IC50 was above 50 µM against JAK1 (Table 6), above 50 µM against JAK2 (Table 6), below 50 µM at JAK3 (Table 6) and above 50 µM on TYK2 (Table 6).
Consider `Fc1ccc(-c2cn3ccnc3c(Nc3ccc4[nH]ccc4c3)n2)cc1Cl`, for which the IC50 against JAK1 (Table 6) was below 50 µM; at JAK2 (Table 6), above 50 µM; against JAK3 (Table 6) it was above 50 µM; on TYK2 (Table 6) it was below 50 µM.
Consider `COc1cccc(OC)c1-c1cn2ccnc2c(Nc2ccc(N3CCOCC3)cc2)n1`, for which the IC50 at JAK1 (Table 5), on JAK2 (Table 5), on JAK3 (Table 5) and against TYK2 (Table 5) was below 50 µM in each case.
For `COc1cc(-c2cn3ccnc3c(N3CCCN(C)CC3)n2)cc(OC)c1OC`, the IC50 against JAK1 (Table 5), at JAK2 (Table 5), on JAK3 (Table 5) and against TYK2 (Table 5) was below 50 µM each time.
As to `CN(C)CCNC(=O)c1ccc(-c2cn3ccnc3c(Nc3ccc(C(=O)O)cc3)n2)cc1`, the IC50 on JAK1 (Table 6), against JAK2 (Table 6), on JAK3 (Table 6) and at TYK2 (Table 6) was below 50 µM each time.
For `O=C(O)c1cccc(-c2cn3ccnc3c(Nc3ccc(N4CCOCC4)cc3)n2)c1`, the IC50 on JAK1 (Table 6), against JAK2 (Table 6), on JAK3 (Table 6) and against TYK2 (Table 6) was below 50 µM each time.
Regarding `COc1ccc(Nc2nc(-c3c(C)cccc3C)cn3ccnc23)cn1`, the IC50 was above 50 µM at JAK1 (Table 6), above 50 µM at JAK2 (Table 6), below 50 µM against JAK3 (Table 6) and above 50 µM against TYK2 (Table 6).
As for `CCCC/C=C/c1cn2ccnc2c(NC2CCC(O)CC2)n1` (centres unmarked), the IC50 on JAK1 (Table 6) was above 50 µM; on JAK2 (Table 6) it was above 50 µM; on JAK3 (Table 6), below 50 µM; on TYK2 (Table 6) it was above 50 µM.
